Columns and labels:
full length mouse TREX1 = biological target: T1, full length mouse TREX1 (Mus musculus, UniProt Q91XB0); assay: mTREX1 Biochemical Assay (fluorescence, dsDNA substrate degradation); settings: biochemical, read-out: mTREX1 IC50
T1 construct: N-terminally His-Tev tagged full length mouse TREX1; made in house; host or cells: E. coli
T1 sequence (Q91XB0 1-314): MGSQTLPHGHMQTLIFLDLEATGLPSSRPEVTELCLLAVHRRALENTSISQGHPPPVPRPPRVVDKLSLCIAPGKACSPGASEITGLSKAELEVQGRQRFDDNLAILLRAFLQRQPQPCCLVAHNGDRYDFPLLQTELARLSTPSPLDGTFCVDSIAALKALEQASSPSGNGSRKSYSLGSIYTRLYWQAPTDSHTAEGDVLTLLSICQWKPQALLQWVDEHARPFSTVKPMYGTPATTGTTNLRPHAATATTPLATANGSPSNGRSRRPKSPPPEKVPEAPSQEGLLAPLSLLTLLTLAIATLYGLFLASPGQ
Summary of the method: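 Reaction run 18 h at 25° C. with 60 nM TEX615/quencher-labelled dsDNA and 6 pM mouse TREX1 in Tris buffer (pH 7.4, 5 mM MgCl2, 1.0% DMSO), enzyme having sat 4 h with compound across 10 concentrations. EDTA quench; substrate degradation measured as fluorescence increase.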

full length human TREX1 = biological target: T2, full length human TREX1 (Homo sapiens, UniProt Q9NSU2); assay: hTREX1 Biochemical Assay (fluorescence, dsDNA substrate degradation); settings: biochemical, read-out: hTREX1 IC50
T2 construct: N-terminally His-Tev tagged full length human TREX1; made in house; host or cells: E. coli
T2 sequence (Q9NSU2 1-314): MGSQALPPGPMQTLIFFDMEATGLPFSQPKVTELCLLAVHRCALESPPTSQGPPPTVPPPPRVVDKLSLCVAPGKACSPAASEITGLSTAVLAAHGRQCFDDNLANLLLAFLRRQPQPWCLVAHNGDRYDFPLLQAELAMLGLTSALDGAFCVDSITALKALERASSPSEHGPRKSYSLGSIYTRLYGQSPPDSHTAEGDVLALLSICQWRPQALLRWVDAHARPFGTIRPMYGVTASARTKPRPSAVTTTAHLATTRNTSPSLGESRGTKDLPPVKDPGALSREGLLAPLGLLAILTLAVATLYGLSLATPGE
Summary of the method: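 Fluorescence rises as enzyme degrades a quenched TEX615-labelled dsDNA substrate (60 nM) in 50 mM Tris, 150 mM NaCl, 5 mM MgCl2, pH 7.4. Full-length His-Tev-tagged human TREX1, 4 pM, sits with compound 4 hours at 25° C before substrate; reaction 18 hours, stopped with EDTA.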

[1] = biological target: T3, human TREX2 (residues M44-A279) (Homo sapiens, UniProt Q9BQ50); assay: hTREX2 Biochemical Assay (fluorescence, dsDNA substrate degradation); settings: biochemical selectivity for hTREX1 vs hTREX2
T3 construct: human TREX2 (residues M44-A279, expressed in E. coli); made in house; host or cells: E. coli
T3 sequence (Q9BQ50 44-279 isoform Q9BQ50-1): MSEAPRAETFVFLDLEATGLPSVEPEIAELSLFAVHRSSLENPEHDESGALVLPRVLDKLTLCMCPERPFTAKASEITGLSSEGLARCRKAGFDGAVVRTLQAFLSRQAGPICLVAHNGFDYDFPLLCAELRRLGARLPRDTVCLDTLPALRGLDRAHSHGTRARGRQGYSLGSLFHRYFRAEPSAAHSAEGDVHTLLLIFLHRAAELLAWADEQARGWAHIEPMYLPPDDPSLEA
Summary of the method: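 Fluorogenic dsDNA degradation read at 615 nm (570 nm excitation) after EDTA quench. Final 60 nM substrate, 50 pM His-Tev-tagged enzyme, 5 mM MgCl2, pH 7.4, 1.0% DMSO; 4 h compound–enzyme preincubation then 18 h reaction, both 25 °C; 10-point titration.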

| Compound | IC50 (full length mouse TREX1) | IC50 (full length human TREX1) | hTREX1 vs hTREX2 selectivity [1] |
| --- | --- | --- | --- |
| Cn1cc(C(c2ccccc2C#N)C(c2nc(C(=O)Nc3cnoc3)c(O)c(=O)n2C)C(F)(F)F)cn1 (single isomer, unassigned) [Example 40 D2E2] | > 10 nM | > 10 nM | B (B = 25 to 50-fold selective for hTREX1) |
| CC(c1nc(C(=O)Nc2cnoc2)c(O)c(=O)n1C)C(c1cnn(C)c1)c1cccnc1C#N (single isomer, unassigned) [Example 7 D2E2] | > 10 nM | > 10 nM | B (B = 25 to 50-fold selective for hTREX1) |
| Cc1cnn(C(c2cc(F)ccc2Cl)C(C)c2nc(C(=O)Nc3cnoc3)c(O)c(=O)n2C)c1 (single isomer, unassigned) [Example 144 D1E1] | > 10 nM | > 10 nM | A (A = <25 fold selective for hTREX1) |
| CC(c1nc(C(=O)Nc2cnoc2)c(O)c(=O)n1C)C(c1cnn(C)c1)c1cc(F)ccc1C#N (single isomer, unassigned) [Example 14 D2E1] | > 10 nM | > 10 nM | A (A = <25 fold selective for hTREX1) |
| Cc1cnc(C(c2cc(F)ccc2Cl)C(C)c2nc(C(=O)Nc3cnoc3)c(O)c(=O)n2C)cn1 (single isomer, unassigned) [Example 117 D1E1] | > 10 nM | > 10 nM | A (A = <25 fold selective for hTREX1) |
| Cc1nnc(C(c2ccccc2Cl)C(C)c2nc(C(=O)Nc3cnoc3)c(O)c(=O)n2C)o1 (single isomer, unassigned) [Example 156 D2E1] | > 10 nM | > 10 nM | A (A = <25 fold selective for hTREX1) |
| Cc1n[nH]c(C)c1C(c1ccccc1C#N)C(C)c1nc(C(=O)Nc2cnoc2)c(O)c(=O)n1C (single isomer, unassigned) [Example 95 D2E2] | > 10 nM | > 10 nM | A (A = <25 fold selective for hTREX1) |
| Cc1ncc(C(c2cc(F)ccc2C#N)C(C)c2nc(C(=O)Nc3cnoc3)c(O)c(=O)n2C)nc1C (single isomer, unassigned) [Example 124 D2E1] | > 10 nM | > 10 nM | A (A = <25 fold selective for hTREX1) |
| CC(c1nc(C(=O)Nc2cnoc2)c(O)c(=O)n1C)C(c1cnn(CC2COC2)c1)c1ccccc1Cl (single isomer, unassigned) [Example 88 D2E2] | > 10 nM | > 10 nM | A (A = <25 fold selective for hTREX1) |
| CC(c1nc(C(=O)Nc2cnoc2)c(O)c(=O)n1C)C(c1ccccc1Cl)c1nncn1C (single isomer, unassigned) [Example 152 D2E2] | > 10 nM | > 10 nM | A (A = <25 fold selective for hTREX1) |
| CC(c1nc(C(=O)Nc2cnoc2)c(O)c(=O)n1C)C(c1cnn(CC(C)(C)O)c1)c1ccccc1Cl (single isomer, unassigned) [Example 86 D2E1] | > 10 nM | > 10 nM | A (A = <25 fold selective for hTREX1) |
| Cc1nn(C)cc1C(c1cc(F)ccc1C#N)C(c1nc(C(=O)Nc2cnoc2)c(O)c(=O)n1C)C(F)(F)F (single isomer, unassigned) [Example 42 D2E1] | > 10 nM | 1 to 10 nM | B (B = 25 to 50-fold selective for hTREX1) |
| COCCn1ncc(C(c2cc(F)ccc2C#N)C(C)c2nc(C(=O)Nc3cnoc3)c(O)c(=O)n2C)c1C (single isomer, unassigned) [Example 104 D1E2] | > 10 nM | > 10 nM | A (A = <25 fold selective for hTREX1) |
| Cc1n[nH]c(C)c1C(c1ccccc1C#N)C(C)c1nc(C(=O)Nc2cnoc2)c(O)c(=O)n1C (single isomer, unassigned) [Example 95 D2E1] | > 10 nM | > 10 nM | A (A = <25 fold selective for hTREX1) |
| CCn1cc(C(c2cc(F)ccc2Cl)C(C)c2nc(C(=O)Nc3cnoc3)c(O)c(=O)n2C)cn1 (single isomer, unassigned) [Example 60 D1E2] | > 10 nM | 1 to 10 nM | A (A = <25 fold selective for hTREX1) |
| CC(c1nc(C(=O)Nc2cnoc2)c(O)c(=O)n1C)C(c1ccccc1Cl)c1nncn1C (single isomer, unassigned) [Example 152 D2E1] | > 10 nM | > 10 nM | B (B = 25 to 50-fold selective for hTREX1) |
| Cc1cnc(C(c2ccccc2C#N)C(C)c2nc(C(=O)Nc3cnoc3)c(O)c(=O)n2C)c(C)n1 (single isomer, unassigned) [Example 123 D2E2] | > 10 nM | > 10 nM | A (A = <25 fold selective for hTREX1) |
| Cc1cnn(C(c2ccccc2Cl)C(C)c2nc(C(=O)Nc3cnoc3)c(O)c(=O)n2C)c1 (single isomer, unassigned) [Example 133 D1E1] | > 10 nM | > 10 nM | A (A = <25 fold selective for hTREX1) |
| CC(c1nc(C(=O)Nc2cnoc2)c(O)c(=O)n1C)C(c1ccccc1C#N)c1nnnn1C (single isomer, unassigned) [Example 131 D2E1] | > 10 nM | > 10 nM | C (C = >50 fold selective for hTREX1) |
| CC(c1nc(C(=O)Nc2cnoc2)c(O)c(=O)n1C)C(c1cnn(C(C)C)c1)c1ccccc1C#N (single isomer, unassigned) [Example 105 D2E2] | > 10 nM | > 10 nM | A (A = <25 fold selective for hTREX1) |

Results, then the compound that gave them:

| IC50 (full length mouse TREX1) | IC50 (full length human TREX1) | hTREX1 vs hTREX2 selectivity [1] | Compound |
| --- | --- | --- | --- |
| > 10 nM | > 10 nM | A (A = <25 fold selective for hTREX1) | CC(C)c1cnn(C(c2ccccc2Cl)C(C)c2nc(C(=O)Nc3cnoc3)c(O)c(=O)n2C)c1 (single isomer, unassigned) [Example 135 D1E2] |
| > 10 nM | > 10 nM | A (A = <25 fold selective for hTREX1) | Cc1nn(C)c(C)c1C(c1ccccc1C#N)C(C)c1nc(C(=O)Nc2cnoc2)c(O)c(=O)n1C (single isomer, unassigned) [Example 78 D1E2] |
| > 10 nM | 1 to 10 nM | C (C = >50 fold selective for hTREX1) | CCn1ncc(C(c2ccc(F)cc2C#N)C(C)c2nc(C(=O)Nc3cnoc3)c(O)c(=O)n2C)c1C (single isomer, unassigned) [Example 65 D2E1] |
| > 10 nM | > 10 nM | A (A = <25 fold selective for hTREX1) | CC(c1nc(C(=O)Nc2cnoc2)c(O)c(=O)n1C)C(c1cnn(CC2COC2)c1)c1ccccc1Cl (single isomer, unassigned) [Example 88 D2E1] |
| > 10 nM | > 10 nM | A (A = <25 fold selective for hTREX1) | CC(c1nc(C(=O)Nc2cnoc2)c(O)c(=O)n1C)C(c1cnn(C(C)C)c1)c1ccccc1C#N (single isomer, unassigned) [Example 105 D1E1] |
| > 10 nM | 1 to 10 nM | A (A = <25 fold selective for hTREX1) | CC(c1nc(C(=O)Nc2cnoc2)c(O)c(=O)n1C)C(c1nnn(C)n1)c1ccccc1C#N (single isomer, unassigned) [Example 79 D2E1] |
| < 1 nM | < 1 nM | C (C = >50 fold selective for hTREX1) | Cc1nn(C)cc1C(c1ccc(F)cc1C#N)C(C)c1nc(C(=O)Nc2cnoc2)c(O)c(=O)n1C (single isomer, unassigned) [Example 56 D1E1] |
| 1 to 10 nM | > 10 nM | A (A = <25 fold selective for hTREX1) | CC(c1nc(C(=O)Nc2cnoc2)c(O)c(=O)n1C)C(c1cnn(CCOC(F)(F)F)c1)c1cc(F)ccc1Cl (single isomer, unassigned) [Example 98 D1E2] |

— patent US20240246946A1, “MODULATORS OF TREX1” (Constellation Pharmaceuticals, Inc., priority 2021, published 2024)
